Legend:
LYC1 = biological target: T1, LYC1 (Yarrowia lipolytica, UniProt P41929); experiment: LC-MS of dansylated product; format: biochemical; details: with acetyl-CoA
T1 sequence (P41929 1-392): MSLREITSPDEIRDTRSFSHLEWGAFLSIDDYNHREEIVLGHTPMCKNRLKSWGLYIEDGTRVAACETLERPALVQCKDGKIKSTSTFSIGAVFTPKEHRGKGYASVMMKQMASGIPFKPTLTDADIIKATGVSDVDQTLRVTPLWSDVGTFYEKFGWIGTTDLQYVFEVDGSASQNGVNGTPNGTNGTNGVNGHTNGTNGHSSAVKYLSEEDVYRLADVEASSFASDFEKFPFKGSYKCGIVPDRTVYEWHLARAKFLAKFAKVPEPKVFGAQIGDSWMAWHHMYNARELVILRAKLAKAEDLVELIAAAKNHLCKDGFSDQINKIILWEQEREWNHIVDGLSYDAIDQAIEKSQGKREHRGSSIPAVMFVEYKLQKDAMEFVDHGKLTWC

RDW23166.1 = details: acetyl-CoA co-substrate presumed; conditions in supplement

NCCCC[C@H](N)C(=O)O [lysine]
LC-MS of dansylated product (LYC1): confirming that LYC1 catalyzes lysine acetylation specifically with acetyl-CoA as the substrate | Km (RDW23166.1): 6.21 mM
